# Source: PubChem BioAssay AID318 (DTP/NCI, 2004)
# Values joined by “and” are separate entries in the source; they are usually repeats but may differ in a detail not shown here. Equal entries are not always repeated. Toxic doses and inconclusive results are not listed.
# System: BDF1 mice, P815 leukemia ip, survival T/C
# Assay: NCI In Vivo Anticancer Drug Screen. Data for tumor model P815 Mast Cell Leukemia (Ascitic) (intraperitoneal) in B6D2F1 (BDF1) mice
# Settings: endpoint: survival time, mean or median, higher = longer survival
# Description: The antitumor activity of compounds was measured in mice bearing transplantable tumors. Survival or tumor size were measured and the results are expressed as the measurement made in the treated group (T) divided by the measurement made in the vehicle treated control group (C). The tumor model used in this assay is P815 Mast Cell Leukemia (Ascitic) (intraperitoneal) in B6D2F1 (BDF1) mice
# [1] = dose: 12.5 mg/kg/injection, schedule: Q01DX010 (ip), vehicle: saline
# [2] = dose: 25.0 mg/kg/injection, schedule: Q01DX010 (ip), vehicle: saline
# [3] = dose: 50.0 mg/kg/injection, schedule: Q01DX010 (ip), vehicle: saline
# [4] = dose: 10.0 mg/kg/injection, schedule: Q01DX010 (ip), vehicle: saline
# [5] = dose: 0.5 mg/kg/injection, schedule: Q01DX010 (ip), vehicle: saline
# [6] = dose: 1.0 mg/kg/injection, schedule: Q01DX010 (ip), vehicle: saline
# [7] = dose: 2.0 mg/kg/injection, schedule: Q01DX010 (ip), vehicle: saline
# [8] = dose: 4.0 mg/kg/injection, schedule: Q01DX010 (ip), vehicle: saline
structure (smiles),measurement,setting,value
CC(Cl)CN(Cc1cc(O)c(CN(CC(C)Cl)CC(C)Cl)cc1O)CC(C)Cl (centres undefined),T/C,"dose: 62.5 mg/kg/injection, schedule: Q01DX015 (ip), vehicle: carboxymethylcellulose (CMC)",114 % of control
same,T/C,"dose: 125.0 mg/kg/injection, schedule: Q01DX015 (ip), vehicle: carboxymethylcellulose (CMC)",99 % of control
same,T/C,"dose: 250.0 mg/kg/injection, schedule: Q01DX015 (ip), vehicle: carboxymethylcellulose (CMC)",122 % of control
same,T/C,"dose: 500.0 mg/kg/injection, schedule: Q01DX015 (ip), vehicle: carboxymethylcellulose (CMC)",124 % of control
COc1cc(-c2ccc(Nc3ccccc3C(=O)O)c(OC)c2)ccc1Nc1ccccc1C(=O)O,T/C,"dose: 45.0 mg/kg/injection, schedule: Q01DX010 (ip), vehicle: saline",108 % of control
same,T/C,"dose: 67.0 mg/kg/injection, schedule: Q01DX010 (ip), vehicle: saline",120 % of control
CS(=O)(=O)OCCC(=O)N1CCN(C(=O)CCOS(C)(=O)=O)CC1,T/C,[1],105 % of control
same,T/C,[2],222 % of control
same,T/C,[3],211 % of control and 285 % of control
same,T/C,"dose: 100.0 mg/kg/injection, schedule: Q01DX010 (ip), vehicle: saline",183 % of control and 160 % of control
CC1CN=C(c2ccc(NC(=O)c3ccc(C(=O)Nc4ccc(C5=NCC(C)N5)cc4)cc3)cc2)N1 (centres undefined),T/C,[4],165 % of control
same,T/C,"dose: 15.0 mg/kg/injection, schedule: Q01DX010 (ip), vehicle: saline",156 % of control
same,T/C,"dose: 22.0 mg/kg/injection, schedule: Q01DX010 (ip), vehicle: saline",182 % of control
same,T/C,"dose: 33.0 mg/kg/injection, schedule: Q01DX010 (ip), vehicle: saline",186 % of control
Cc1cc(N(CCCl)CCCl)ccc1N=Nc1ccccc1C(=O)O,T/C,"dose: 5.0 mg/kg/injection, schedule: Q01DX010 (ip), vehicle: saline",105 % of control and 111 % of control
same,T/C,[4],105 % of control and 111 % of control
same,T/C,"dose: 20.0 mg/kg/injection, schedule: Q01DX010 (ip), vehicle: saline",111 % of control
same,T/C,"dose: 40.0 mg/kg/injection, schedule: Q01DX010 (ip), vehicle: saline",88 % of control
N#C[C@@H]1C2C=CC(CC2)[C@H]1C#N,T/C,"dose: 0.25 mg/kg/injection, schedule: Q01DX010 (ip), vehicle: saline",100 % of control
same,T/C,[5],100 % of control and 105 % of control
same,T/C,[6],100 % of control
same,T/C,[7],88 % of control and 100 % of control
CCCCOP(=S)(N1CC1)N1CC1,T/C,[8],120 % of control and 122 % of control
same,T/C,"dose: 16.0 mg/kg/injection, schedule: Q01DX010 (ip), vehicle: saline",90 % of control and 122 % of control
same,T/C,"dose: 32.0 mg/kg/injection, schedule: Q01DX010 (ip), vehicle: saline",90 % of control
CN(C)c1ccc(/C=C\c2ccnc3ccccc23)cc1,T/C,"dose: 1.5 mg/kg/injection, schedule: Q01DX010 (ip), vehicle: saline",90 % of control
same,T/C,"dose: 3.0 mg/kg/injection, schedule: Q01DX010 (ip), vehicle: saline",90 % of control
same,T/C,"dose: 6.0 mg/kg/injection, schedule: Q01DX010 (ip), vehicle: saline",90 % of control
same,T/C,"dose: 12.0 mg/kg/injection, schedule: Q01DX010 (ip), vehicle: saline",90 % of control
CS(=O)(=O)OCCN(CCOS(C)(=O)=O)c1ccc(N=O)cc1,T/C,[6],161 % of control
same,T/C,[7],115 % of control
same,T/C,[8],100 % of control
C(CC1CO1)C1CO1 (centres undefined),T/C,"dose: 40.0 mg/kg/injection, schedule: Q01DX015 (ip), vehicle: saline",150 % of control
same,T/C,"dose: 60.0 mg/kg/injection, schedule: Q01DX015 (ip), vehicle: saline",172 % of control
Nc1nc(F)nc2c1ncn2C1OC(CO)C(O)C1O (centres undefined),T/C,[5],100 % of control
same,T/C,"dose: 0.75 mg/kg/injection, schedule: Q01DX015 (ip), vehicle: saline",99 % of control
same,T/C,[6],100 % of control and 112 % of control
same,T/C,"dose: 1.5 mg/kg/injection, schedule: Q01DX015 (ip), vehicle: saline",98 % of control
same,T/C,[7],100 % of control and 112 % of control
same,T/C,[8],100 % of control and 112 % of control
same,T/C,"dose: 8.0 mg/kg/injection, schedule: Q01DX010 (ip), vehicle: saline",88 % of control
COS(C)(=O)=O,T/C,[1],100 % of control
same,T/C,[2],100 % of control
same,T/C,[3],100 % of control
